Test system: type 2 diabetes patients
Assay: Parameters of beta-cell function (insulin, proinsulin, C-peptide, HOMA) fasting and 2 h after test meal
Type: in vivo, human
Conditions: for ratio of proinsulin to C-peptide: after treatment, indicating improvement in beta-cell function; for Insulin-C-peptide ratio - change, 2 h after test meal / Insulin-C-peptide ratio - change, Fasting / Proinsulin-C-peptide ratio - change, 2 h after test meal / Proinsulin-C-peptide ratio - change, Fasting / HOMA - change / Insulin-proinsulin ratio - change, 2 h after test meal / Insulin-proinsulin ratio - change, Fasting / C-peptide - change, 2 h after test meal / C-peptide - change, Fasting / Insulin - change, 2 h after test meal / Insulin - change, Fasting / Proinsulin - change, 2 h after test meal / Proinsulin - change, Fasting / Insulin-C-peptide ratio - visit 8, 2 h after test meal / Insulin-C-peptide ratio - visit 8, Fasting / Proinsulin-C-peptide ratio - visit 8, 2 h after test meal / Proinsulin-C-peptide ratio - visit 8, Fasting / HOMA - visit 8 / Insulin-proinsulin ratio - visit 8, 2 h after test meal / Insulin-proinsulin ratio - visit 8, Fasting / C-peptide - visit 8, 2 h after test meal / C-peptide - visit 8, Fasting / Insulin - visit 8, 2 h after test meal / Insulin - visit 8, Fasting / Proinsulin - visit 8, 2 h after test meal / Proinsulin - visit 8, Fasting: per protocol; for Insulin-C-peptide ratio - change, 2 h after test meal / Insulin-C-peptide ratio - change, Fasting / Proinsulin-C-peptide ratio - change, 2 h after test meal / Proinsulin-C-peptide ratio - change, Fasting / HOMA - change / Insulin-proinsulin ratio - change, 2 h after test meal / Insulin-proinsulin ratio - change, Fasting / C-peptide - change, 2 h after test meal / C-peptide - change, Fasting / Insulin - change, 2 h after test meal / Insulin - change, Fasting / Proinsulin - change, 2 h after test meal / Proinsulin - change, Fasting: change visit 1 to visit 8; for Insulin-C-peptide ratio - change, 2 h after test meal / Insulin-C-peptide ratio - change, Fasting / Proinsulin-C-peptide ratio - change, 2 h after test meal / Proinsulin-C-peptide ratio - change, Fasting / Insulin-C-peptide ratio - visit 8, 2 h after test meal / Insulin-C-peptide ratio - visit 8, Fasting / Proinsulin-C-peptide ratio - visit 8, 2 h after test meal / Proinsulin-C-peptide ratio - visit 8, Fasting: mean; for HOMA - change / Insulin-proinsulin ratio - change, 2 h after test meal / Insulin-proinsulin ratio - change, Fasting / C-peptide - change, 2 h after test meal / C-peptide - change, Fasting / Insulin - change, 2 h after test meal / Insulin - change, Fasting / Proinsulin - change, 2 h after test meal / Proinsulin - change, Fasting / HOMA - visit 8 / Insulin-proinsulin ratio - visit 8, 2 h after test meal / Insulin-proinsulin ratio - visit 8, Fasting / C-peptide - visit 8, 2 h after test meal / C-peptide - visit 8, Fasting / Insulin - visit 8, 2 h after test meal / Insulin - visit 8, Fasting / Proinsulin - visit 8, 2 h after test meal / Proinsulin - visit 8, Fasting: mean (SD); for C-peptide - change, 2 h after test meal / C-peptide - change, Fasting / Insulin - change, 2 h after test meal / Insulin - change, Fasting / Proinsulin - change, 2 h after test meal / Proinsulin - change, Fasting / C-peptide - visit 8, 2 h after test meal / C-peptide - visit 8, Fasting / Insulin - visit 8, 2 h after test meal / Insulin - visit 8, Fasting / Proinsulin - visit 8, 2 h after test meal / Proinsulin - visit 8, Fasting: unit as in Table 4; for Insulin-C-peptide ratio - visit 8, 2 h after test meal / Insulin-C-peptide ratio - visit 8, Fasting / Proinsulin-C-peptide ratio - visit 8, 2 h after test meal / Proinsulin-C-peptide ratio - visit 8, Fasting / HOMA - visit 8 / Insulin-proinsulin ratio - visit 8, 2 h after test meal / Insulin-proinsulin ratio - visit 8, Fasting / C-peptide - visit 8, 2 h after test meal / C-peptide - visit 8, Fasting / Insulin - visit 8, 2 h after test meal / Insulin - visit 8, Fasting / Proinsulin - visit 8, 2 h after test meal / Proinsulin - visit 8, Fasting: week 36
Method: Below is a list of the various target parameters: • Protection of the β-cells by early insulin therapy • C-Peptide (fasting and 2 h pp after TM) • Proinsulin (fasting and 2 h pp after TM) • Glycemic variability: • Glycemic load • Standard deviation (SD), • MAGE • HbA1c • Anti-inflammatory action of insulin: • Biomarkers of subclinical inflammation (fasting and 2 h pp) • hsCRP, • PAI-1, • Leukocyte count • Back-up samples for determining • MMP9 • ADMA • Adiponectin • Effect on endothelial function • Endothelial function at ball of thumb using laser Doppler (O2C) • Effect on renal function • Microalbuminuria (albumin/creatinine ratio) • Serum creatinine • Risk of hypoglycemia • Hypoglycemic intervals (time<3 mmol glucose) during CGM over 48 hours (day 2+3 after TM) • Free fatty acids
Test meal: On the morning of the 2nd day of the CGM, there is a standardized test meal in the trial center. This test meal (TM) consists of 95 g of whole-wheat bread, 20 g of margarine, 25 g of fruit preserves, 25 g of cheese, 200 ml of orange juice, 200 ml of milk mix with banana, strawberry or cocoa with a total of 560 Kcal. Blood is taken from the patient prior to the TM (after night-time fasting period of at least 8 hours). Subsequently, the TM should be eaten within 15 min. From the 1st bite, the time is measured, and after 2 h have elapsed, a 2nd blood collection is performed. During the TM and during the two hours thereafter, the patient should move as little as possible so as not to falsify the monitoring.
• HbA1c chromatographically by HLPC (device: TOSOH A1c) • Plasma glucose by enzymatic UV test HK (device: Selectra) • Creatinine in urine by PAP test (enzyme-photometrically) (device: Selectra) • Albumin in urine (spontaneous) by immunoturbidimetric method (device: Selectra) • Microalbuminuria (calculated: albumin/creatinine ratio) • Serum creatinine enzyme-photometrically by means of creatinine PAP test (device: Selectra) • ALAT, ASAT by optimized UV method according to IFCC (device: Selectra) • Insulin by ELISA (solid-phase enzyme immunoassay; device: Anthos) • C-peptide by ELISA (solid-phase enzyme immunoassay; device: Anthos) • Proinsulin (intact) (solid-phase enzyme immunoassay; device: Anthos) • Triglycerides by GPO-PAP method (device: Selectra) • HDL cholesterol by enzymatic test (device: Selectra) • LDL cholesterol by enzymatic test (device: Selectra) • Free fatty acids by photometric method (NEFA) (device: Selektra) • hsCRP by immunoturbidimetric method (device: Selectra) • PAI-1 (plasminogen activator inhibitor active antigen) bioimmunoassay • Leukocyte count by electronic counting • Pregnancy test (urine dipstick)
In the study in the previous examples, 75 patients (45 men, 30 women, mean age: 60.7±9.2 years) were examined, whose first diagnosis of type 2 diabetes dated back to less than 5 years and whose HbA1c level was between 6.5 and 8.5%. The patients were treated with either metformin (MET, 1000 mg b.i.d. (n=3)) or insulin glargine (GLA) q.d. just before bedtime (n=3). The insulin dose was adjusted for a target plasma glucose concentration (FPG) of ≦5.6 mmol/L according to a standardized titration algorithm. At the start and end of the study, the HbA1c level and the plasma glucose, proinsulin and C-peptide concentrations were determined. […] All the patients received a standardized test meal on the second day of the continuous glucose monitoring for comparison of the interindividual postprandial (pp) glucose excursions.

For Insulin glargine, the “ratio of proinsulin to C-peptide” value was “significant reduction”, the beta-cell function (early treatment, compared to standard treatment with MET) was “improvement in beta-cell function” and the “Insulin-C-peptide ratio - change, 2 h after test meal” value was −24587.4. The “Insulin-C-peptide ratio - change, Fasting” value was 46799.3, the “Proinsulin-C-peptide ratio - change, 2 h after test meal” value was −2496.6 and the “Proinsulin-C-peptide ratio - change, Fasting” value was −1174.8. For the same compound, the HOMA - change was 77.2 (98.0), the “Insulin-proinsulin ratio - change, 2 h after test meal” value was 8.2 (9.4) and the “Insulin-proinsulin ratio - change, Fasting” value was 16.4 (12.4). For the same compound, the “C-peptide - change, 2 h after test meal” value was −0.6 (2.4) nmol/l, the “C-peptide - change, Fasting” value was −1.2 (1.1) nmol/l and the “Insulin - change, 2 h after test meal” value was 6.5 (38.4) mU/l. For the same compound, the “Insulin - change, Fasting” value was 2.7 (6.7) mU/l, the “Proinsulin - change, 2 h after test meal” value was −11.1 (26.8) pmol/l and the “Proinsulin - change, Fasting” value was −7.6 (10.8) pmol/l. For the same compound, the “Insulin-C-peptide ratio - visit 8, 2 h after test meal” value was 59822.8, the “Insulin-C-peptide ratio - visit 8, Fasting” value was 80748.4 and the “Proinsulin-C-peptide ratio - visit 8, 2 h after test meal” value was 3578.2. The “Proinsulin-C-peptide ratio - visit 8, Fasting” value was 3537.8, the “HOMA - visit 8” value was 127.9 (99.3) and the “Insulin-proinsulin ratio - visit 8, 2 h after test meal” value was 20.7 (11.8). The “Insulin-proinsulin ratio - visit 8, Fasting” value was 24.5 (11.7), the “C-peptide - visit 8, 2 h after test meal” value was 6.7 (3.1) nmol/l and the “C-peptide - visit 8, Fasting” value was 1.6 (0.9) nmol/l. For the same compound, the “Insulin - visit 8, 2 h after test meal” value was 62.6 (51.8) mU/l, the “Insulin - visit 8, Fasting” value was 14.6 (8.8) mU/l and the “Proinsulin - visit 8, 2 h after test meal” value was 26.8 (29.0) pmol/l. The “Proinsulin - visit 8, Fasting” value was 5.4 (5.0) pmol/l.

In the case of `CN(C)C(=N)N=C(N)N` [Metformin], the “ratio of proinsulin to C-peptide” value is reported as “significant reduction”, the “Insulin-C-peptide ratio - change, 2 h after test meal” value is reported as −38956.8 and the “Insulin-C-peptide ratio - change, Fasting” value is reported as −25386.1. The “Proinsulin-C-peptide ratio - change, 2 h after test meal” value was −1668.7, the “Proinsulin-C-peptide ratio - change, Fasting” value was −1386.3 and the HOMA - change was 4.4 (19.5). For the same compound, the “Insulin-proinsulin ratio - change, 2 h after test meal” value was 3.0 (8.4), the “Insulin-proinsulin ratio - change, Fasting” value was 2.9 (7.6) and the “C-peptide - change, 2 h after test meal” value was −0.1 (2.0) nmol/l. The “C-peptide - change, Fasting” value was −0.3 (0.8) nmol/l, the “Insulin - change, 2 h after test meal” value was −11.1 (30.2) mU/l and the “Insulin - change, Fasting” value was −2.7 (3.6) mU/l. For the same compound, the “Proinsulin - change, 2 h after test meal” value was −6.9 (14.5) pmol/l, the “Proinsulin - change, Fasting” value was −3.2 (4.2) pmol/l and the “Insulin-C-peptide ratio - visit 8, 2 h after test meal” value was 41915.2. For the same compound, the “Insulin-C-peptide ratio - visit 8, Fasting” value was 25456.9, the “Proinsulin-C-peptide ratio - visit 8, 2 h after test meal” value was 2458.1 and the “Proinsulin-C-peptide ratio - visit 8, Fasting” value was 2142.4. For the same compound, the “HOMA - visit 8” value was 56.3 (34.5), the “Insulin-proinsulin ratio - visit 8, 2 h after test meal” value was 24.7 (27.1) and the “Insulin-proinsulin ratio - visit 8, Fasting” value was 16.7 (17.4). The “C-peptide - visit 8, 2 h after test meal” value was 7.9 (3.4) nmol/l, the “C-peptide - visit 8, Fasting” value was 2.7 (1.1) nmol/l and the “Insulin - visit 8, 2 h after test meal” value was 50.8 (39.7) mU/l. The “Insulin - visit 8, Fasting” value was 10.0 (6.0) mU/l, the “Proinsulin - visit 8, 2 h after test meal” value was 20.4 (19.9) pmol/l and the “Proinsulin - visit 8, Fasting” value was 5.8 (4.6) pmol/l.

From patent US20130172246A1, “INSULIN GLARGINE VERSUS METFORMIN FOR THE FIRST-LINE TREATMENT OF EARLY TYPE-2 DIABETES” (priority 2011, published 2013)
